Measured values from US11925194B2, “Antimicrobially active mixtures” (SYMRISE AG, priority 2017, dated 2024).

Experiments:
S. cerevisiae [1] = experiment: Germ load test of aroma and extract combinations, pure water pH 7; type: cell-based, Saccharomyces cerevisiae; details: 400 ppm in sample
Source text: (§1) In the scope of a further test, the antimicrobial effect of aroma and extract combinations was examined. […] For example, grape stone extract and the flavouring agent vanillic acid have a different effect against yeasts. In the combination, however, also an effect against fungi and an optimal effect against yeasts was observed. The pomegranate and red berry extract have a lower effect at pH 7 compared to pH 3 (cf. Example 5), the pomegranate extract eliminates S. cerevisiae in less than 14 days at 1000 mg/kg. In combination with Limonene-containing lemon oils, however, the effect can be increased for higher pH values.

Z. bailii = experiment: as above; type: cell-based, Zygosaccharomyces bailii; details: 400 ppm in sample
Source text: as §1

C. albicans = experiment: as above; type: cell-based, Candida albicans; details: 400 ppm in sample
Source text: as §1

S. cerevisiae [2] = experiment: Antimicrobial effect of extracts and fractions, citrate buffer pH 5; type: cell-based, Saccharomyces cerevisiae
Source text: For further examination of the antimicrobial effect of different extracts alone, i.e. without a combination with component (B) or fractions thereof according to the invention, exemplary extracts or fractions thereof such as described in Examples 1 to 4 were used. […] The samples were inoculated with 3.8×10^4 CFU/mL […].

Row | Compound | Elimination of S. cerevisiae in less than (time) (S. cerevisiae [1]) | Elimination of Z. bailii in less than (time) (Z. bailii) | Elimination of C. albicans in less than (time) (C. albicans) | Reduction in the germination number of S. cerevisiae (in words) (S. cerevisiae [2]; 375 mg/kg, pH 5, 28 days) | Germination number S. cerevisiae after 28 days (S. cerevisiae [2]; dose 375 mg/kg, citrate buffer pH 5, after inoculation 3.80E+04)
1 | COc1cc(C(=O)O)ccc1O [Vanillic acid] | < 14 days | < 24 h | < 24 h |  | 
2 | C/C=C/C=C/C(=O)[O-].[K+] [potassium sorbate] |  |  |  | did not show a significant reduction | 1.00E+03 CFU/mL
